ChEMBL document CHEMBL1201862, “PubChem BioAssay data set” (2004)
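Following 48 hours of exposure in 96-well plates, responses at five concentrations were used to interpolate endpoints linearly. Abbreviation: GI50, concentration required for 50% inhibition of growth.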 Activity calls are given as the source filed them. Rule as the data show it: active = GI50 up to about 1.1 µM and inactive = higher.

Tests used:
Experiment in all cases: NCI tumour cell line growth inhibition, 48 h
CCRF-CEM = test system: CCRF-CEM
DU-145 = test system: DU-145
EKVX = test system: EKVX
Hs-578T = test system: Hs-578T
IGROV-1 = test system: IGROV-1
K562 = test system: K562
M14 = test system: M14
MDA-MB-231 = test system: MDA-MB-231
MDA-MB-435 = test system: MDA-MB-435
MOLT-4 = test system: MOLT-4
NCI-H23 = test system: NCI-H23
NCI-H522 = test system: NCI-H522
NCI/ADR-RES = test system: NCI/ADR-RES
OVCAR-4 = test system: OVCAR-4
OVCAR-5 = test system: OVCAR-5
SF-268 = test system: SF-268
SNB-75 = test system: SNB-75
UACC-257 = test system: UACC-257
UO-31 = test system: UO-31
A498 = test system: A498

Cc1nc(Nc2ccccc2Cl)sc1C(=O)CC(=O)C(=O)Nc1c(Cl)cccc1Cl
GI50 (CCRF-CEM): 28.4 µM (inactive)
GI50 (DU-145): 27 µM (inactive)
GI50 (EKVX): 17.9 µM (inactive)
GI50 (Hs-578T): 25.2 µM (inactive)
GI50 (IGROV-1): 15.8 µM (inactive)
GI50 (K562): 41.8 µM (inactive)
GI50 (M14): 29.9 µM (inactive)
GI50 (MDA-MB-231): 13.6 µM (inactive)
GI50 (MDA-MB-435): 22.9 µM (inactive)
GI50 (MOLT-4): 24 µM (inactive)
GI50 (NCI-H23): 50.1 µM (inactive)
GI50 (NCI-H522): 19.3 µM (inactive)
GI50 (NCI/ADR-RES): 22.3 µM (inactive)
GI50 (OVCAR-4): 49.1 µM (inactive)
GI50 (OVCAR-5): 24.9 µM (inactive)
GI50 (SF-268): 35.6 µM (inactive)
GI50 (SNB-75): 24.4 µM (inactive)
GI50 (UACC-257): 44.4 µM (inactive)
GI50 (UO-31): 23 µM (inactive)

COc1ccc(C2CCc3c(cnc4nc(N)nc(N)c34)C2)cc1 (configuration not stated)
GI50 (A498): 38.4 µM (inactive)
GI50 (DU-145): 37.4 µM (inactive)
GI50 (EKVX): 73.6 µM (inactive)
GI50 (Hs-578T): 40.8 µM (inactive)
GI50 (IGROV-1): 1.09 µM (active)
GI50 (K562): 0.83 µM (active)
GI50 (M14): 1.49 µM (inactive)
GI50 (MDA-MB-231): 40.5 µM (inactive)
GI50 (MDA-MB-435): 4.53 µM (inactive)
GI50 (MOLT-4): 9.48 µM (inactive)
GI50 (NCI-H522): 13.6 µM (inactive)
GI50 (NCI/ADR-RES): > 100 µM (inactive)
GI50 (OVCAR-4): > 100 µM (inactive)
GI50 (OVCAR-5): 13.9 µM (inactive)
GI50 (SF-268): 12.9 µM (inactive)
GI50 (SNB-75): 10.3 µM (inactive)
GI50 (UACC-257): > 100 µM (inactive)

CC(=O)Oc1ccn2nc(C)c(Br)c2c1Br
GI50 (A498): 25.1 µM (inactive)
GI50 (CCRF-CEM): 21.6 µM (inactive)
GI50 (DU-145): 59.4 µM (inactive)
GI50 (EKVX): 29 µM (inactive)
GI50 (Hs-578T): 29.6 µM (inactive)
GI50 (IGROV-1): 32.5 µM (inactive)
GI50 (K562): 24.5 µM (inactive)
GI50 (M14): 18.9 µM (inactive)
GI50 (MDA-MB-231): 23 µM (inactive)
GI50 (MDA-MB-435): 17.9 µM (inactive)
GI50 (MOLT-4): 15.3 µM (inactive)
GI50 (NCI-H23): 18.3 µM (inactive)
GI50 (NCI-H522): 17.6 µM (inactive)
GI50 (NCI/ADR-RES): 47.6 µM (inactive)
GI50 (OVCAR-4): 16.8 µM (inactive)
GI50 (SF-268): 25.5 µM (inactive)
GI50 (SNB-75): 22.1 µM (inactive)
GI50 (UACC-257): 16.7 µM (inactive)
GI50 (UO-31): 4.6 µM (inactive)

Oc1ccc2c(c1)CCc1c-2n(CCN2CCOCC2)c2ccc(O)cc12
GI50 (A498): 14.9 µM (inactive)
GI50 (CCRF-CEM): 38.2 µM (inactive)
GI50 (DU-145): 33 µM (inactive)
GI50 (EKVX): 38.8 µM (inactive)
GI50 (Hs-578T): 32.8 µM (inactive)
GI50 (IGROV-1): 11 µM (inactive)
GI50 (K562): 41.6 µM (inactive)
GI50 (M14): 39 µM (inactive)
GI50 (MDA-MB-231): 49.7 µM (inactive)
GI50 (MDA-MB-435): 44.4 µM (inactive)
GI50 (MOLT-4): 33.4 µM (inactive)
GI50 (NCI-H23): 27.7 µM (inactive)
GI50 (NCI/ADR-RES): 21 µM (inactive)
GI50 (OVCAR-5): 78.3 µM (inactive)
GI50 (SF-268): 31.8 µM (inactive)
GI50 (SNB-75): 16.8 µM (inactive)
GI50 (UACC-257): 37.2 µM (inactive)
GI50 (UO-31): 10.4 µM (inactive)

O=C(c1ccco1)N(Cc1ccco1)C(=S)Nc1ccccc1
GI50 (CCRF-CEM): 3.79 µM (inactive)
GI50 (DU-145): 33.2 µM (inactive)
GI50 (EKVX): 45.9 µM (inactive)
GI50 (Hs-578T): 19.3 µM (inactive)
GI50 (IGROV-1): 16.1 µM (inactive)
GI50 (K562): 3.33 µM (inactive)
GI50 (M14): 12 µM (inactive)
GI50 (MDA-MB-231): 13.3 µM (inactive)
GI50 (MDA-MB-435): 10.6 µM (inactive)
GI50 (MOLT-4): 7.08 µM (inactive)
GI50 (NCI-H23): 13.5 µM (inactive)
GI50 (NCI-H522): 16.9 µM (inactive)
GI50 (NCI/ADR-RES): 21.9 µM (inactive)
GI50 (OVCAR-4): 25.6 µM (inactive)
GI50 (OVCAR-5): 36.5 µM (inactive)
GI50 (SF-268): 20.2 µM (inactive)
GI50 (SNB-75): 18.5 µM (inactive)
GI50 (UACC-257): 15.7 µM (inactive)
GI50 (UO-31): 16.5 µM (inactive)

CN1CC(S(=O)(=O)c2ccccc2)CC(S(=O)(=O)c2ccccc2)C1c1ccccc1 (configuration not stated)
GI50 (A498): 16.2 µM (inactive)
GI50 (DU-145): 18 µM (inactive)
GI50 (EKVX): 14.3 µM (inactive)
GI50 (Hs-578T): 20.9 µM (inactive)
GI50 (IGROV-1): 25.9 µM (inactive)
GI50 (K562): 15 µM (inactive)
GI50 (M14): 16.8 µM (inactive)
GI50 (MDA-MB-231): 15.3 µM (inactive)
GI50 (MDA-MB-435): 10.9 µM (inactive)
GI50 (MOLT-4): 16.8 µM (inactive)
GI50 (NCI-H522): 2.9 µM (inactive)
GI50 (NCI/ADR-RES): 23.3 µM (inactive)
GI50 (OVCAR-4): 12 µM (inactive)
GI50 (OVCAR-5): 15.2 µM (inactive)
GI50 (SF-268): 16.2 µM (inactive)
GI50 (UACC-257): 15 µM (inactive)
GI50 (UO-31): 15.3 µM (inactive)

CC1=CC(=O)N(n2c(Cc3ccc(Cl)cc3)n[nH]c2=O)C1=O
GI50 (A498): 71.8 µM (inactive)
GI50 (CCRF-CEM): 7.91 µM (inactive)
GI50 (DU-145): > 100 µM (inactive)
GI50 (EKVX): 49 µM (inactive)
GI50 (Hs-578T): 35.4 µM (inactive)
GI50 (IGROV-1): 83.4 µM (inactive)
GI50 (K562): 23.3 µM (inactive)
GI50 (M14): 47.9 µM (inactive)
GI50 (MDA-MB-231): 46.3 µM (inactive)
GI50 (MDA-MB-435): 38.2 µM (inactive)
GI50 (MOLT-4): 20.8 µM (inactive)
GI50 (NCI-H23): 92.3 µM (inactive)
GI50 (NCI-H522): 17.4 µM (inactive)
GI50 (NCI/ADR-RES): > 100 µM (inactive)
GI50 (OVCAR-4): 38.6 µM (inactive)
GI50 (OVCAR-5): > 100 µM (inactive)
GI50 (SF-268): 70.1 µM (inactive)
GI50 (UACC-257): > 100 µM (inactive)
GI50 (UO-31): > 100 µM (inactive)

CCOC(=O)CCC(NC(=O)c1ccc(Nc2nc3cc(C(F)(F)F)ccc3nc2-c2ccccc2)cc1)C(=O)OCC (configuration not stated)
GI50 (A498): 5.35 µM (inactive)
GI50 (CCRF-CEM): 27.8 µM (inactive)
GI50 (DU-145): 24.5 µM (inactive)
GI50 (EKVX): 20.2 µM (inactive)
GI50 (Hs-578T): 19.7 µM (inactive)
GI50 (IGROV-1): 14.7 µM (inactive)
GI50 (K562): 23.4 µM (inactive)
GI50 (M14): > 100 µM (inactive)
GI50 (MDA-MB-231): 20.3 µM (inactive)
GI50 (MDA-MB-435): 28.8 µM (inactive)
GI50 (MOLT-4): 16.9 µM (inactive)
GI50 (NCI-H23): 20.7 µM (inactive)
GI50 (NCI/ADR-RES): 19.5 µM (inactive)
GI50 (OVCAR-4): 21.9 µM (inactive)
GI50 (OVCAR-5): > 100 µM (inactive)
GI50 (SF-268): 22.3 µM (inactive)
GI50 (SNB-75): 15.2 µM (inactive)
GI50 (UACC-257): 22.8 µM (inactive)
GI50 (UO-31): 14.6 µM (inactive)
